# The source made the active and inactive calls. No cut-off for these calls is given here.
# Columns and labels:
# Rattus norvegicus [1] = experiment: Antiinflammatory activity in rat assessed as inhibition of carrageenan-induced paw volume at 20 mg/kg, po administered 1 hr prior to carrageenan challenge measured after 3 hrs (reference value: 1.68 +/- 0.029 ml); assay type: functional
# Rattus norvegicus [2] = experiment: Antiinflammatory activity in rat assessed as inhibition of carrageenan-induced paw volume at 20 mg/kg, po administered 1 hr prior to carrageenan challenge measured after 5 hrs relative to vehicle-treated control; assay type: functional
# Rattus norvegicus [3] = experiment: Antiinflammatory activity in rat assessed as inhibition of carrageenan-induced paw volume at 20 mg/kg, po administered 1 hr prior to carrageenan challenge measured after 5 hrs (reference value: 1.70 +/- 0.020 ml); assay type: functional
# Rattus norvegicus [4] = experiment: Antiinflammatory activity in rat assessed as inhibition of carrageenan-induced paw volume at 20 mg/kg, po administered 1 hr prior to carrageenan challenge measured after 3 hrs relative to vehicle-treated control; assay type: functional
# RAW264.7 = experiment: Antiinflammatory activity against mouse RAW264.7 cells assessed as inhibition of LPS-induced TNFalpha level at 20 uM after 24 hrs by ELISA relative to untreated control; assay type: functional; conditions: RAW264.7, 24 h
# Rattus norvegicus [5] = experiment: Ulcerogenic effect in Albino Wistar rat assessed as damage in gastric mucosa at 60 mg, po after 5 hrs; assay type: toxicity, organism-based; conditions: in vivo
# [6] = Cytotoxicity against mouse RAW264.7 cells assessed as cell viability at 20 uM after 24 hrs by MTT assay; assay type: cell-based; conditions: read-out: Activity
# [7] = Reduction in carrageenan-induced lipid peroxidation in gastric mucosa tissue (unknown origin) assessed as MDA after 30 mins; assay type: functional, tissue-based
# Mus musculus [8] = experiment: Analgesic activity in Swiss Albino acetic acid-induced writhing mouse model assessed as protection at 20 mg/kg, po administered 30 mins before to acetic acid challenge measured for 10 mins; assay type: functional
# Mus musculus [9] = experiment: Analgesic activity in Swiss Albino acetic acid-induced writhing mouse model assessed as number of writhes at 20 mg/kg, po administered 30 mins before to acetic acid challenge measured for 10 mins (reference value: 92.8 +/- 1.49); assay type: functional
# [10] = Inhibition of carrageenan-induced COX-2 expression in paw tissue (unknown origin) by immunohistochemistry; assay type: functional
# [11] = Inhibition of carrageenan-induced NFkappaB expression in paw tissue (unknown origin) by immunohistochemistry; assay type: functional
# [12] = Inhibition of carrageenan-induced TNFalpha expression in paw tissue (unknown origin) by immunohistochemistry; assay type: functional
Compound,Activity (Rattus norvegicus [1]) [mL],inhibition in vivo at 20 mg/kg (Rattus norvegicus [2]) [%],Activity (Rattus norvegicus [3]) [mL],inhibition in vivo at 20 mg/kg (Rattus norvegicus [4]) [%],inhibition at 20 µM (RAW264.7) [%],Activity (Rattus norvegicus [5]),"viability at 24 h, 20 µM [6] [%]",inhibition [7],Activity (Mus musculus [8]) [%],Activity (Mus musculus [9]),inhibition [10],inhibition [11],inhibition [12]
COc1ccccc1-n1cc(COC(=O)/C=C/C=C/c2ccc3c(c2)OCO3)nn1,0.76,65,0.72,61.6,–,–,–,–,–,–,–,–,–
O=C(/C=C/C=C/c1ccc2c(c1)OCO2)OCc1cn(-c2ccc([N+](=O)[O-])cc2)nn1,1.39,22.1,1.37,19.6,–,–,–,–,–,–,–,–,–
O=C(/C=C/C=C/c1ccc2c(c1)OCO2)N1CCCCC1 [PIPERINE],0.676,54.7,0.67,53.7,49.7,Non-toxic,–,–,–,–,–,–,–
O=C(/C=C/C=C/c1ccc2c(c1)OCO2)OCc1cn(-c2ccc(Cl)cc2Cl)nn1,0.64,71.2,0.622,69.3,60.7,Non-toxic,90,Active,45.04,51,–,–,–
O=C(/C=C/C=C/c1ccc2c(c1)OCO2)OCc1cn(-c2ccc(F)cc2)nn1,0.87,57,0.85,55.5,–,–,–,–,–,–,–,–,–
Cc1ccc(-n2cc(COC(=O)/C=C/C=C/c3ccc4c(c3)OCO4)nn2)cc1,1.01,49.1,0.98,46.2,–,–,–,–,–,–,–,–,–
COc1ccc(-n2cc(COC(=O)/C=C/C=C/c3ccc4c(c3)OCO4)nn2)cc1,0.88,55.9,0.86,54,–,–,–,–,–,–,–,–,–
CCOc1ccc(-n2cc(COC(=O)/C=C/C=C/c3ccc4c(c3)OCO4)nn2)cc1,1.1,36.5,1.14,32.9,–,–,–,–,–,–,–,–,–
O=C(/C=C/C=C/c1ccc2c(c1)OCO2)OCc1cn(-c2ccccc2Cl)nn1,0.58,76.7,0.56,74.5,73.7,Non-toxic,90,Active,50.64,45.8,Active,Active,Active
O=C(/C=C/C=C/c1ccc2c(c1)OCO2)OCc1cn(-c2ccc(Br)cc2)nn1,0.89,55.5,0.87,53.6,–,–,–,–,–,–,–,–,–
Cc1ccc(-n2cc(COC(=O)/C=C/C=C/c3ccc4c(c3)OCO4)nn2)cc1C,0.68,70.3,0.66,67.9,–,–,–,–,44.93,51.2,–,–,–
O=C(/C=C/C=C/c1ccc2c(c1)OCO2)OCc1cn(-c2ccccc2Br)nn1,0.56,80.4,0.51,76.1,70.6,Non-toxic,90,Active,54.09,42.6,Active,Active,Active
O=C(/C=C/C=C/c1ccc2c(c1)OCO2)OCc1cn(-c2ccc(Cl)cc2)nn1,0.83,59.7,0.81,57.5,–,–,–,–,–,–,–,–,–
O=C(/C=C/C=C/c1ccc2c(c1)OCO2)OCc1cn(-c2cccc(Cl)c2)nn1,0.71,67.8,0.69,64.7,–,–,–,–,–,–,–,–,–
O=C(/C=C/C=C/c1ccc2c(c1)OCO2)OCc1cn(-c2ccccc2)nn1,1.12,38.5,1.11,37,–,–,–,–,–,–,–,–,–
O=C(/C=C/C=C/c1ccc2c(c1)OCO2)OCc1cn(-c2cccc([N+](=O)[O-])c2)nn1,1.44,15.4,1.46,15.6,–,–,–,–,–,–,–,–,–
O=C(/C=C/C=C/c1ccc2c(c1)OCO2)OCc1cn(-c2ccc(Cl)c(Cl)c2)nn1,0.632,73,0.588,69.6,63.6,Non-toxic,90,Active,50,46.4,–,–,–
O=C(/C=C/C=C/c1ccc2c(c1)OCO2)OCc1cn(-c2ccccc2F)nn1,0.68,70.8,0.65,68.2,–,–,–,–,48.7,45.8,–,–,–
CCc1ccc(-n2cc(COC(=O)/C=C/C=C/c3ccc4c(c3)OCO4)nn2)cc1,0.83,60,0.8,57.5,–,–,–,–,–,–,–,–,–
COc1ccc2c(c1)c(CC(=O)O)c(C)n2C(=O)c1ccc(Cl)cc1 [INDOMETHACIN],0.608,77,0.54,72,68,Toxic,55,–,57.43,39.4,Active,Active,Active
Cc1ccccc1-n1cc(COC(=O)/C=C/C=C/c2ccc3c(c2)OCO3)nn1,0.91,54.6,0.88,51.5,–,–,–,–,–,–,–,–,–

# Reference: ChEMBL document CHEMBL3414439, “Design, synthesis and biological evaluation of piperic acid triazolyl derivatives as potent anti-inflammatory agents” (Eur J Med Chem, 2015)
